The assay addresses T1, Cbl-b (Homo sapiens, UniProt Q13191).
T1 construct: Cbl-b-HiBit KI Jurkat Cells were purchased from Promega; host or cells: Cbl-b-HiBiT knock-in Jurkat cells
Put plainly: Cbl-b Degradation Method A (FACS, anti-Cbl-b antibody staining). The settings on record: Cbl-b-HiBit KI Jurkat Cells, incubated at least 20 hours; for DC50: half maximal degradation, read-out: Cbl-b Degredation Method A IC50; for Dmax: Jurkat, maximum degradation observed, read-out: Cbl-b Degredation Method A Dmax (%). It counts as cell-based. Here is the method: Cbl-b Degradation Method A
Cbl-b-HiBit KI Jurkat Cells were purchased from Promega, and cell media consisted of RPMI 1640 with 10% FBS and 1% pen/strep. The cells were counted, measured for viability, and 100 μL of the cell solution was into 96 well flat bottom plates at a ratio of 290,000 cells per 100 μL. Compounds were dissolved in DMSO to make a 10 mM stock solution, which was diluted with cell media. 100 μL of the diluted compound mixture was added to the wells. The plate was incubated for at least 20 hours at 37° C. and 5% CO2. After incubation, the plate was shaken at 700-750 RMP for 15-30 minutes to ensure cells were removed from the wells. The wells were transferred to a 96-well v-bottom plate and spun for 2200 RPM for 3 minutes. The supernatant was removed, cells re-suspended in 100 μL of the fixative, and subsequently incubated at room temperature for 15 minutes. Afterwards, 150 μL of DPBS was added to each well, and the cells were centrifuged at 2500 RPM for 3 minutes. The supernatant was removed and the plate was chilled on ice for 2-3 minutes. While still on the ice, 100 μL of Perm III was added to each well, the wells mixed, and subsequently left on the ice for another 15 minutes. Afterwards, the plate was removed from the ice, 150 μL of DBPS was added to each well, and the cells centrifuged at 2700 RPM for 3 minutes. The supernatant was removed, and an additional 200 μL of was DPBS was added to each well, followed by centrifuging at 2700 RPM for 3 minutes, after which the supernatant was removed. The anti-Cbl-b antibody was diluted 1:200 in 1× Perm Wash buffer and 50 μL of the antibody mixture was added to each well and mixed. After addition, the plate was incubated for 35-45 minutes at room temperature. After incubation, 200 μL of DPBS was added to each wells, and the plate centrifuged at 2700 RPM for 3 minutes, followed by the removal of the supernatant. The washing step was repeated by adding 200 μL of DPBS to each wells followed by centrifuge at 2700 RPM for 3 minutes and removal of the supernatant. The a-Rabbit-AF488 antibody was diluted 1:1000 in Perm Wash buffer, 50 μL of the dilution added to each well, and mixed. After mixing, the plate was incubated for 30 minutes at room temperature in the dark. Subsequently, the supernatant was removed, and 200 μL of DBPS added to the cells, which were then centrifuged at 2900 RPM for 4 minutes. The supernatant was removed, and an additional 95 μL of DBPS was added to the wells and mixed. The cells were then transferred to a round bottom polypropylene plate and analyzed using FACS with the parameters below:
The concentration of an exemplary compound that leads to half maximal degradation (DC50) as well as the maximum degradation observed (Dmax, conventionally expressed as a percentage of control) is shown below in Table 2.

The values that follow come from US20260184710A1, “CASITAS B-LINEAGE LYMPHOMA PROTOONCOGENE B (CBL-B) DEGRADING COMPOUNDS AND ASSOCIATED METHODS OF USE” (Arvinas Operations, Inc., priority 2022, published 2026).

By Dmax is commonly meant the greatest extent of degradation seen.

The structures appear in SMILES notation. Bounds are passed on as bounds.

T1 sequence (Q13191 whole entry): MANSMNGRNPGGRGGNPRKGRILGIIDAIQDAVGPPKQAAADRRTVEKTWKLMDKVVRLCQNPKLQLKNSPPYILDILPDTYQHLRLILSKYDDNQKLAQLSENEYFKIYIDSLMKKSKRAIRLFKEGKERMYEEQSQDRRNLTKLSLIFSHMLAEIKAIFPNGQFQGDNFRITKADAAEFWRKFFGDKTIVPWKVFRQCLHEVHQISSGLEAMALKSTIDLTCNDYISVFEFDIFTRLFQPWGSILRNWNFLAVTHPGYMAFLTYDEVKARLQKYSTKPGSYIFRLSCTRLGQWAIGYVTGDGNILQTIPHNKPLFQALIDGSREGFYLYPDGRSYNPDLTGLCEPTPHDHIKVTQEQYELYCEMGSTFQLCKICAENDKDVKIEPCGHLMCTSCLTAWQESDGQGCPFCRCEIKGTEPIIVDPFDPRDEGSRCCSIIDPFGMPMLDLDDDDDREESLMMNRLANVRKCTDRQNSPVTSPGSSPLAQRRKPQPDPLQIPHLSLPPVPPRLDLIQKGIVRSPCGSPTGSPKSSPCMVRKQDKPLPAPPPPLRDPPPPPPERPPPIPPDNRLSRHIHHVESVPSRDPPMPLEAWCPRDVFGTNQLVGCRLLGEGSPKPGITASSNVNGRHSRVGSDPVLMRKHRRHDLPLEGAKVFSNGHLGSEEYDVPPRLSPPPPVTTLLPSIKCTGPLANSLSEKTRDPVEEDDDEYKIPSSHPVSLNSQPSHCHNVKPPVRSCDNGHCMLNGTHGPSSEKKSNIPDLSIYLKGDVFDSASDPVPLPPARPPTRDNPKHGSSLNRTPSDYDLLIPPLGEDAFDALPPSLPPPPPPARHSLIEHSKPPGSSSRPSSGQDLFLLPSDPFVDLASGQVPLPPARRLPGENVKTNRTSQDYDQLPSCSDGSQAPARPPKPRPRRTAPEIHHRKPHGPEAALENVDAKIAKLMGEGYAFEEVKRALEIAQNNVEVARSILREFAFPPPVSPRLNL

As to `Cn1cnnc1CC1(c2cccc(N3Cc4c(cc(N5CC(CC6CN(c7ccc8c(c7)C(=O)N(C7CCC(=O)NC7=O)C8=O)C6)C5)cc4C(F)(F)F)C3=O)c2)COC1` (centres unmarked) [Example 120, 2-(2,6-dioxopiperidin-3-yl)-5-[3-({1-[2-(3-{3-[(4-methyl-4H-1,2,4-triazol-3-yl)methyl]oxetan-3-yl}phenyl)-3-oxo-7-(trifluoromethyl)-2,3-dihydro-1H-isoindol-5-yl]azetidin-3-yl}methyl)azetidin-1-yl]-2,3-dihydro-1H-isoindole-1,3-dione], the DC50 lay within 5 to 50 nM and the maximal degradation (Dmax) was 35 to 70%.

Regarding `Cc1cc(N2CCC(O[C@H]3CC[C@H](CN4CCC5(CC4)CN(c4cc6c(c(C(F)(F)F)c4)CN(c4cccc([C@]7(Cc8nncn8C)C[C@@H](C#N)C7)c4)C6=O)C5)CC3)CC2)c(F)c2c1C(=O)N(C1CCC(=O)NC1=O)C2` (some centres unmarked) [Example 187, (1r,3r)-3-[(4-methyl-4H-1,2,4-triazol-3-yl)methyl]-3-{3-[1-oxo-6-(7-{[(1r,4r)-4-({1-[2-(2,6-dioxopiperidin-3-yl)-4-fluoro-7-methyl-1-oxo-2,3-dihydro-1H-isoindol-5-yl]piperidin-4-yl}oxy)cyclohexyl]methyl}-2,7-diazaspiro[3.5]nonan-2-yl)-4-(trifluoromethyl)-2,3-dihydro-1H-isoindol-2-yl]phenyl}cyclobutane-1-carbonitrile], the DC50 was 5 to 50 nM and the Dmax was 35 to 70%.

For `Cc1cc(N2CCC(O[C@H]3CC[C@H](CN4CCN(Cc5cc6c(c(C(F)(F)F)c5)CN(c5cccc([C@]7(Cc8nncn8C)C[C@@H](C#N)C7)c5)C6=O)CC4)CC3)CC2)c(F)c2c1C(=O)N(C1CCC(=O)NC1=O)C2` (some centres unmarked) [Example 205, (1r,3r)-3-[(4-methyl-4H-1,2,4-triazol-3-yl)methyl]-3-(3-{1-oxo-6-[(4-{[(1r,4r)-4-({1-[2-(2,6-dioxopiperidin-3-yl)-4-fluoro-7-methyl-1-oxo-2,3-dihydro-1H-isoindol-5-yl]piperidin-4-yl}oxy)cyclohexyl]methyl}piperazin-1-yl)methyl]-4-(trifluoromethyl)-2,3-dihydro-1H-isoindol-2-yl}phenyl)cyclobutane-1-carbonitrile], the DC50 was under 5 nM and the Dmax was in the range of 35 to 70%.

Take `Cn1cnnc1CC1(c2cccc(N3Cc4c(cc(N5CC(CC6CCN(c7ccc8c(c7)C(=O)N(C7CCC(=O)NC7=O)C8=O)CC6)C5)cc4C(F)(F)F)C3=O)c2)COC1` (centres unmarked) [Example 133, 2-(2,6-dioxopiperidin-3-yl)-5-[4-({1-[2-(3-{3-[(4-methyl-4H-1,2,4-triazol-3-yl)methyl]oxetan-3-yl}phenyl)-3-oxo-7-(trifluoromethyl)-2,3-dihydro-1H-isoindol-5-yl]azetidin-3-yl}methyl)piperidin-1-yl]-2,3-dihydro-1H-isoindole-1,3-dione]: the DC50 fell in the range of 5 to 50 nM and the Dmax is over 70%.

Regarding `Cn1cnnc1CC1(c2cccc(N3Cc4c(cc(CN5CC6(CCN(C[C@H]7CC[C@H](OC8CCN(c9ccc%10c(c9F)CN(C9CCC(=O)NC9=O)C%10=O)CC8)CC7)CC6)C5)cc4C(F)(F)F)C3=O)c2)COC1` (some centres unmarked) [Example 6, 3-[4-fluoro-1-oxo-5-(4-{[(1r, 4r)-4-[(2-{[2-(3-{3-[(4-methyl-4H-1,2,4-triazol-3-yl)methyl]oxetan-3-yl}phenyl)-3-oxo-7-(trifluoromethyl)-2,3-dihydro-1H-isoindol-5-yl]methyl}-2,7-diazaspiro[3.5]nonan-7-yl)methyl]cyclohexyl]oxy}piperidin-1-yl)-2,3-dihydro-1H-isoindol-2-yl]piperidine-2,6-dione], the DC50 was under 5 nM and the Dmax was over 70%.

`Cc1cc(N2CCC(CN3CCC4(CC3)CN(c3cc5c(c(C(F)(F)F)c3)CN(c3cccc(C6(Cc7nncn7C)CCC6)c3)C5=O)C4)CC2)c(F)c2c1C(=O)N(C1CCC(=O)NC1=O)C2` (centres unmarked) [Example 190, 3-{4-fluoro-7-methyl-5-[4-({2-[2-(3-{1-[(4-methyl-4H-1,2,4-triazol-3-yl)methyl]cyclobutyl}phenyl)-3-oxo-7-(trifluoromethyl)-2,3-dihydro-1H-isoindol-5-yl]-2,7-diazaspiro[3.5]nonan-7-yl}methyl)piperidin-1-yl]-1-oxo-2,3-dihydro-1H-isoindol-2-yl}piperidine-2,6-dione]: the DC50 lay within 5 to 50 nM and the Dmax was over 70%.

As for `Cn1cnnc1CC1(c2cccc(N3Cc4c(cc(CN5CCCC(N6CCC(CN7CCC(CN8CCN(c9ccc%10c(c9)C(=O)N(C9CCC(=O)NC9=O)C%10=O)CC8)CC7)CC6)C5)cc4C(F)(F)F)C3=O)c2)COC1` (centres unmarked) [Example 109, 2-(2,6-dioxopiperidin-3-yl)-5-[4-({1-[(1′-{[2-(3-{3-[(4-methyl-4H-1,2,4-triazol-3-yl)methyl]oxetan-3-yl}phenyl)-3-oxo-7-(trifluoromethyl)-2,3-dihydro-1H-isoindol-5-yl]methyl}-[1,3′-bipiperidin]-4-yl)methyl]piperidin-4-yl}methyl)piperazin-1-yl]-2,3-dihydro-1H-isoindole-1,3-dione], the DC50 was under 5 nM and the greatest degradation seen (Dmax) was over 70%.

As to `Cn1cnnc1CC1(c2cccc(N3Cc4c(cc(CN5CC6(CCN(CC7CCN(c8ccc9c(c8F)CN(C8CCC(=O)NC8=O)C9=O)CC7)CC6)C5)cc4C(F)(F)F)C3=O)c2)COC1` (centres unmarked) [Example 25, 3-(4-fluoro-5-{4-[(2-{[2-(3-{3-[(4-methyl-4H-1,2,4-triazol-3-yl)methyl]oxetan-3-yl}phenyl)-3-oxo-7-(trifluoromethyl)-2,3-dihydro-1H-isoindol-5-yl]methyl}-2,7-diazaspiro[3.5]nonan-7-yl)methyl]piperidin-1-yl}-1-oxo-2,3-dihydro-1H-isoindol-2-yl)piperidine-2,6-dione], the DC50 fell in the range of 5 to 50 nM and the Dmax was under 35%.

As to `Cn1cnnc1CC1(c2cccc(N3Cc4c(cc(N5CC6(CCN(C[C@H]7CC[C@H](OC8CCN(c9ccc%10c(c9Cl)CN(C9CCC(=O)NC9=O)C%10=O)CC8)CC7)CC6)C5)cc4C(F)(F)F)C3=O)c2)COC1` (some centres unmarked) [Example 184, 3-[4-chloro-1-oxo-5-(4-{[(1r,4r)-4-({2-[2-(3-{3-[(4-methyl-4H-1,2,4-triazol-3-yl)methyl]oxetan-3-yl}phenyl)-3-oxo-7-(trifluoromethyl)-2,3-dihydro-1H-isoindol-5-yl]-2,7-diazaspiro[3.5]nonan-7-yl}methyl)cyclohexyl]oxy}piperidin-1-yl)-2,3-dihydro-1H-isoindol-2-yl]piperidine-2,6-dione], the DC50 was under 5 nM and the Dmax is over 70%.

Take `Cn1cnnc1CC1(c2cccc(N3Cc4c(cc(N5CC6(CCN(C[C@H]7CC[C@H](OC8CCN(c9ccc%10c(c9F)CN(C9CCC(=O)NC9=O)C%10=O)CC8)CC7)CC6)C5)cc4C(F)(F)F)C3=O)c2)COC1` (some centres unmarked) [Example 7, 3-[4-fluoro-1-oxo-5-(4-{[(1r, 4r)-4-({2-[2-(3-{3-[(4-methyl-4H-1,2,4-triazol-3-yl)methyl]oxetan-3-yl}phenyl)-3-oxo-7-(trifluoromethyl)-2,3-dihydro-1H-isoindol-5-yl]-2,7-diazaspiro [3.5]nonan-7-yl}methyl)cyclohexyl]oxy}piperidin-1-yl)-2,3-dihydro-1H-isoindol-2-yl]piperidine-2,6-dione]: the DC50 is under 5 nM and the Dmax is over 70%.
